Measurements: ChEMBL document CHEMBL6103615, “Thymidylate Kinase-Targeted Antimicrobial Peptides via Phage Display: A Novel Strategy against Gram-Negative Bacteria” (J Med Chem, 2025)
Activity calls are given as the source filed them. The calls are words filed in the database; no cut-off is given here.

Columns and labels:
[1] = Hydrophobicity of compound; assay type: physicochemical
[2] = Cytotoxicity against mouse RAW264.7 cells assessed as cell viability at 128 uM incubated for 4 hrs by MTT assay relative to control; assay type: toxicity, cell-based; settings: read-out: Activity
[3] = Cytotoxicity against porcine IPEC-J2 cells assessed as cell viability at 128 uM incubated for 4 hrs by MTT assay relative to control; assay type: toxicity, cell-based, Sus scrofa; settings: pig, read-out: Activity
[4] = Antibacterial activity against Salmonella choleraesuis 21493 incubated for 12 to 18 hrs by microbroth dilution method; assay type: functional, Salmonella enterica subsp. enterica serovar Choleraesuis; settings: Salmonella enterica, time 12-18 hrs
[5] = tested on: Staphylococcus epidermidis; assay: Antibacterial activity against Staphylococcus epidermidis 12228 incubated for 12 to 18 hrs by microbroth dilution method; assay type: functional; settings: time 12-18 hrs
Staphylococcus aureus [6] = assay: Antibacterial activity against Staphylococcus aureus 25923 incubated for 12 to 18 hrs by microbroth dilution method; assay type: functional; settings: time 12-18 hrs
Pseudomonas aeruginosa [7] = assay: Antibacterial activity against Pseudomonas aeruginosa PAO1 incubated for 12 to 18 hrs by microbroth dilution method; assay type: functional; settings: time 12-18 hrs
Escherichia coli [8] = assay: Antibacterial activity against Escherichia coli 078 incubated for 12 to 18 hrs by microbroth dilution method; assay type: functional; settings: time 12-18 hrs
[9] = tested on: Lacticaseibacillus rhamnosus; assay: Antibacterial activity against Lactobacillus rhamnosus 7469 incubated for 12 to 18 hrs by microbroth dilution method; assay type: functional; settings: time 12-18 hrs
Staphylococcus aureus [10] = assay: Antibacterial activity against methicillin-resistant Staphylococcus aureus 43300 incubated for 12 to 18 hrs by microbroth dilution method; assay type: functional; settings: time 12-18 hrs
Staphylococcus aureus [11] = assay: Antibacterial activity against Staphylococcus aureus 29213 incubated for 12 to 18 hrs by microbroth dilution method; assay type: functional; settings: time 12-18 hrs
[12] = tested on: Lactiplantibacillus plantarum; assay: Antibacterial activity against Lactobacillus plantarum 8014 incubated for 12 to 18 hrs by microbroth dilution method; assay type: functional; settings: time 12-18 hrs
Escherichia coli [13] = assay: Antibacterial activity against Escherichia coli 1515 incubated for 12 to 18 hrs by microbroth dilution method; assay type: functional; settings: time 12-18 hrs
Lactococcus lactis = assay: Antibacterial activity against Lactococcus lactis NZ9000 incubated for 12 to 18 hrs by microbroth dilution method; assay type: functional; settings: time 12-18 hrs
Salmonella typhimurium = assay: Antibacterial activity against Salmonella typhimurium 7731 incubated for 12 to 18 hrs by microbroth dilution method; assay type: functional, Salmonella enterica subsp. enterica serovar Typhimurium; settings: Salmonella enterica, time 12-18 hrs
[14] = Relative hydrophobic moment of compound; assay type: physicochemical
Pseudomonas aeruginosa [15] = assay: Antibacterial activity against Pseudomonas aeruginosa 27853 incubated for 12 to 18 hrs by microbroth dilution method; assay type: functional; settings: time 12-18 hrs
Enterococcus faecalis = assay: Antibacterial activity against Enterococcus faecalis 29212 incubated for 12 to 18 hrs by microbroth dilution method; assay type: functional; settings: time 12-18 hrs
Escherichia coli [16] = assay: Antibacterial activity against Escherichia coli K88 incubated for 12 to 18 hrs by microbroth dilution method; assay type: functional; settings: time 12-18 hrs
Escherichia coli [17] = assay: Antibacterial activity against Escherichia coli K99 incubated for 12 to 18 hrs by microbroth dilution method; assay type: functional; settings: time 12-18 hrs
[18] = Hemolytic activity against human red blood cells at 2 to 128 uM relative to control; assay type: toxicity, cell-based, Erythrocyte; settings: dose 2-128 µM, read-out: Activity
Bacteria [19] = assay: Antibacterial activity against bacterial cells at pH 4 to 10; assay type: functional
Bacteria [20] = assay: Antibacterial activity against bacterial cells at 1 to 128 uM in presence of NaCl; assay type: functional, organism-based; settings: dose 1-128 µM
Escherichia coli [21] = assay: Induction of morphological changes in Escherichia coli K88 assessed as membrane contraction at 2 uM incubated for 1 hr by SEM analysis; assay type: functional, organism-based
Escherichia coli [22] = assay: Induction of morphological changes in Escherichia coli K88 assessed as membrane permeability at edges at 2 uM incubated for 1 hr by TEM analysis; assay type: functional, organism-based
Escherichia coli [23] = assay: Disruption of membrane integrity in Escherichia coli K88 at 2 uM by PI staining based flow cytometry (reference value: 0.1 %); assay type: functional
Bacteria [24] = assay: Antibacterial activity against bacterial cells at pH 2 to 12; assay type: functional
Escherichia coli [25] = assay: Induction of resistance development in Escherichia coli K88 at sub-MIC measured after 20 passages; assay type: functional, organism-based
Escherichia coli [26] = assay: Induction of ROS generation in Escherichia coli K88 assessed as increase in fluorescence intensity incubated for 1 hr by DCFH-DA dye based analysis; assay type: functional, organism-based
Bacteria [27] = assay: Antibacterial activity against bacterial cells at 1 to 128 uM in presence of CaCl; assay type: functional, organism-based; settings: dose 1-128 µM
Bacteria [28] = assay: Antibacterial activity against bacterial cells at 1 to 64 uM incubated for 4 hrs in presence of 50 percent serum; assay type: functional, organism-based; settings: dose 1-64 µM
Escherichia coli [29] = assay: Induction of morphological changes in Escherichia coli K88 assessed as cytoplasmic leakage at 2 uM incubated for 1 hr by TEM analysis; assay type: functional, organism-based
Bacteria [30] = assay: Antibacterial activity against bacterial cells at pH 12; assay type: functional
Bacteria [31] = assay: Antibacterial activity against bacterial cells at 100 degreeC at 1 to 64 uM incubated for 60 mins; assay type: functional, organism-based; settings: dose 1-64 µM
[32] = Binding affinity to 6xHis-tagged recombinant Escherichia coli TMK assessed as dissociation constant by BLI assay
Escherichia coli [33] = assay: Inhibition of DNA migration in Escherichia coli K88 at 64 uM incubated for 40 mins by agarose gel electrophoresis.; assay type: functional, organism-based
Escherichia coli [34] = assay: Induction of morphological changes in Escherichia coli K88 assessed as membrane folding at 2 uM incubated for 1 hr by SEM analysis; assay type: functional, organism-based
Bacteria [35] = assay: Antibacterial activity against bacterial cells at pH 2; assay type: functional
[36] = Effect on secondary structure of compound in PBS assessed as formation of alpha-helical conformation at 100 uM by CD analysis; assay type: physicochemical; settings: buffer

| Substance | Activity [1] | viability at 4 h, 128 µM [2] [%] | viability at 4 h, 128 µM [3] [%] | MIC [4] [µM] | MIC [5] [µM] | MIC (Staphylococcus aureus [6]) [µM] | MIC (Pseudomonas aeruginosa [7]) [µM] | MIC (Escherichia coli [8]) [µM] | MIC [9] [µM] | MIC (Staphylococcus aureus [10]) [µM] | MIC (Staphylococcus aureus [11]) [µM] | MIC [12] [µM] | MIC (Escherichia coli [13]) [µM] | MIC (Lactococcus lactis) [µM] | MIC (Salmonella typhimurium) [µM] | Activity [14] | MIC (Pseudomonas aeruginosa [15]) [µM] | MIC (Enterococcus faecalis) [µM] | MIC (Escherichia coli [16]) [µM] | MIC (Escherichia coli [17]) [µM] | also measured |
| --- | --- | --- | --- | --- | --- | --- | --- | --- | --- | --- | --- | --- | --- | --- | --- | --- | --- | --- | --- | --- | --- |
| H-FASSHPSWKKIWKPGIKKWIK-OH | 0.465 | > 80 | > 80 | 16 | 128 | 128 | 16 | 32 | 128 | 128 | 128 | 128 | 32 | 128 | 16 | 0.55 | 32 | 128 | 32 | 32 |  |
| H-HSDANAWWKKIWKPGIKKWIK-OH | 0.406 | > 80 | > 80 | 16 | 128 | 128 | 16 | 8 | 128 | 128 | 128 | 128 | 16 | 128 | 32 | 0.455 | 32 | 128 | 32 | 16 |  |
| H-RLTTMVHWKKIWKPGIKKWIK-OH | 0.51 | > 80 | > 80 | 16 | 128 | 128 | 4 | 8 | 128 | 128 | 128 | 128 | 8 | 128 | 8 | 0.439 | 8 | 128 | 4 | 8 | hemolysis at up to 128 µM [18]: < 5% |
| H-WKKIWKPGIKKWIK-OH | 0.495 | > 80 | > 80 | 16 | 128 | 128 | 16 | 32 | 128 | 128 | 128 | 128 | 32 | 128 | 32 | 0.727 | 32 | 128 | 16 | 16 | MIC (Bacteria [19]): 16 µM; Activity (Bacteria [20]): inactive; Activity (Escherichia coli [21]): inactive; Activity (Escherichia coli [22]): inactive; Activity (Escherichia coli [23]): 16.3%; MIC (Bacteria [24]): 16 µM; Activity (Escherichia coli [25]): inactive; Activity (Escherichia coli [26]): Dose-dependent-effect; Activity (Bacteria [27]): inactive; Activity (Bacteria [28]): Active; Activity (Escherichia coli [29]): inactive; MIC (Bacteria [30]): 32 µM; Activity (Bacteria [31]): Active; Kd [32]: < 1 pM; hemolysis at up to 128 µM [18]: < 5%; inhibition (Escherichia coli [33]): Active; Activity (Escherichia coli [34]): inactive; MIC (Bacteria [35]): 32 µM; Activity [36]: Active |
| H-WTSNDTAWKKIWKPGIKKWIK-OH | 0.41 | > 80 | > 80 | 64 | 128 | 128 | 64 | 128 | 128 | 128 | 128 | 128 | 64 | 128 | 64 | 0.532 | 128 | 128 | 64 | 64 | hemolysis at up to 128 µM [18]: < 5% |
| H-YTVSATYWKKIWKPGIKKWIK-OH | 0.517 | > 80 | > 80 | 16 | 128 | 128 | 8 | 8 | 128 | 128 | 128 | 128 | 8 | 128 | 8 | 0.452 | 32 | 128 | 8 | 8 | hemolysis at up to 128 µM [18]: < 5% |
